Source: BindingDB's records for doi:10.1016/j.bmcl.2006.10.074 (Abbott Laboratories, 2007)

Key:
[1] = target: 11-beta-hydroxysteroid dehydrogenase 1 (Homo sapiens, UniProt P28845); test: Human and Mouse 11beta-HSD1 SPA Assay; details: pH 7.2; 22 °C
Experimental: (§1) Enzyme assays were performed using purified recombinant human or mouse11beta-HSD1. The fractional conversion of cortisone to cortisol was used to determine enzyme activities. The radioactive cortisol generated in the assay was captured by a monoclonal anti-cortisol antibody and SPA beads coated with anti-mouse antibodies.

[2] = target: 11-beta-hydroxysteroid dehydrogenase 1 (Mus musculus, UniProt P50172); test: Human and Mouse 11beta-HSD1 SPA Assay
Experimental: as §1

11-beta-hydroxysteroid dehydrogenase 1 (Homo sapiens, UniProt P28845), sequence (P28845 whole entry): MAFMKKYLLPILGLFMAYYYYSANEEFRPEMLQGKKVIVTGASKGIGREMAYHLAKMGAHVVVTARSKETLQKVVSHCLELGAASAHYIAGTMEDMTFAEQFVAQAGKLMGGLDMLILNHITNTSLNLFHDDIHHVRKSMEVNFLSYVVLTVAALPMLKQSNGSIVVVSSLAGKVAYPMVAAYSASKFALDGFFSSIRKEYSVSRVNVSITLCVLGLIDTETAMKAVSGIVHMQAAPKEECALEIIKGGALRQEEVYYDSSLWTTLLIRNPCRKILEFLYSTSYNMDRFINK
11-beta-hydroxysteroid dehydrogenase 1 (Mus musculus, UniProt P50172), sequence (P50172 whole entry): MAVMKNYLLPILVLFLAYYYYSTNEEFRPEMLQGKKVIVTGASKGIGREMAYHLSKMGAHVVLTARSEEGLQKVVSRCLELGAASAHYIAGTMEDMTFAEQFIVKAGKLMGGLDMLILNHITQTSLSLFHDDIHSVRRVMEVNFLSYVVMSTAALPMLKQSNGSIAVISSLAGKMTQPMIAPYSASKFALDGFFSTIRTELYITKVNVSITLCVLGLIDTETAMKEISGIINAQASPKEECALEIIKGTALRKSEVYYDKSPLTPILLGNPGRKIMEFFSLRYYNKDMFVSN

| IC50 [1] [nM] | IC50 [2] [nM] | SMILES |
| --- | --- | --- |
| 8 | 8 | CC(C)(Oc1ccccc1Cl)C(=O)N[C@H]1C2C[C@@H]3C[C@@H]1C[C@@](C(=O)O)(C2)C3 [(1R,3R,4S,7S)-4-[2-(2-chlorophenoxy)-2-methylpropanamido]adamantane-1-carboxylic acid] |
| – | 11 | CC(C)(Oc1ccc(Cl)cc1)C(=O)N[C@H]1C2C[C@@H]3C[C@@H]1C[C@@](C(=O)NCc1cncs1)(C2)C3 [(1R,3R,4S,7S)-4-[2-(4-chlorophenoxy)-2-methylpropanamido]-N-(1,3-thiazol-5-ylmethyl)adamantane-1-carboxamide] |
| 51 | 24 | CC(C)(Oc1ccc(Cl)cc1)C(=O)N[C@H]1C2C[C@@H]3C[C@@H]1C[C@@](C(=O)NCc1ccc(S(N)(=O)=O)cc1)(C2)C3 [(1R,3R,4S,7S)-4-[2-(4-chlorophenoxy)-2-methylpropanamido]-N-[(4-sulfamoylphenyl)methyl]adamantane-1-carboxamide] |
| 96 | 28 | CC(C)(Oc1ccccc1Cl)C(=O)N[C@H]1C2C[C@@H]3C[C@@H]1C[C@@](C(=O)NS(C)(=O)=O)(C2)C3 [(1R,3R,4S,7S)-4-[2-(2-chlorophenoxy)-2-methylpropanamido]-N-methanesulfonyladamantane-1-carboxamide] |
| – | 119 | CC(C)(Oc1ccccc1)C(=O)N[C@H]1C2C[C@@H]3C[C@@H]1C[C@@](C(=O)O)(C2)C3 [(1R,3R,4S,7S)-4-(2-methyl-2-phenoxypropanamido)adamantane-1-carboxylic acid] |
| – | 6 | CC(C)(Oc1ccc(Cl)cc1)C(=O)N[C@H]1C2C[C@@H]3C[C@@H]1C[C@@](CO)(C2)C3 [2-(4-chlorophenoxy)-N-[(1R,2S,5R,7S)-5-(hydroxymethyl)adamantan-2-yl]-2-methylpropanamide] |
| – | 8 | CNC(=O)NC(=O)[C@@]12CC3C[C@H](C[C@H](C1)[C@H]3NC(=O)C(C)(C)Oc1ccc(Cl)cc1)C2 [2-(4-chlorophenoxy)-2-methyl-N-[(1R,2S,5R,7S)-5-{[(methylcarbamoyl)amino]carbonyl}adamantan-2-yl]propanamide] |
| – | 18 | CC(C)(Oc1ccc(Cl)cc1)C(=O)N[C@H]1C2C[C@@H]3C[C@@H]1C[C@@](C(=O)NCc1ccc(-c4nnn[nH]4)cc1)(C2)C3 [(1R,3R,4S,7S)-4-[2-(4-chlorophenoxy)-2-methylpropanamido]-N-{[4-(1H-1,2,3,4-tetrazol-5-yl)phenyl]methyl}adamantane-1-carboxamide] |
| – | 4 | COc1ccc(OC(C)(C)C(=O)N[C@H]2C3C[C@@H]4C[C@@H]2C[C@@](C(N)=O)(C3)C4)cc1 [(1R,3R,4S,7S)-4-[2-(4-methoxyphenoxy)-2-methylpropanamido]adamantane-1-carboxamide] |
| 25 | 14 | CC(C)(Oc1ccc(Cl)cc1)C(=O)N[C@H]1C2C[C@@H]3C[C@@H]1C[C@@](C(=O)NCc1ccncc1)(C2)C3 [(1R,3R,4S,7S)-4-[2-(4-chlorophenoxy)-2-methylpropanamido]-N-(pyridin-4-ylmethyl)adamantane-1-carboxamide] |
| 15 | 51 | CC(C)(Oc1cccc(Cl)c1)C(=O)N[C@H]1C2C[C@@H]3C[C@@H]1C[C@@](C(=O)O)(C2)C3 [(1R,3R,4S,7S)-4-[2-(3-chlorophenoxy)-2-methylpropanamido]adamantane-1-carboxylic acid] |
| 110 | 210 | CC(C)(Oc1ccc(Cl)cc1)C(=O)N[C@H]1C2C[C@@H]3C[C@@H]1C[C@@](COCC(=O)O)(C2)C3 [2-{[(1R,3R,4S,7S)-4-[2-(4-chlorophenoxy)-2-methylpropanamido]adamantan-1-yl]methoxy}acetic acid] |
| – | 4 | CC(C)(Oc1ccccc1)C(=O)N[C@H]1C2C[C@@H]3C[C@@H]1C[C@@](C(N)=O)(C2)C3 [(1R,3R,4S,7S)-4-(2-methyl-2-phenoxypropanamido)adamantane-1-carboxamide] |
| – | 10 | CC(C)(Oc1ccc(F)cc1Cl)C(=O)N[C@H]1C2C[C@@H]3C[C@@H]1C[C@@](c1nnn[nH]1)(C2)C3 [2-(2-chloro-4-fluorophenoxy)-2-methyl-N-[(1R,2S,5R,7S)-5-(1H-1,2,3,4-tetrazol-5-yl)adamantan-2-yl]propanamide] |
| – | 70 | CC(C)(Oc1ccc(Cl)cc1)C(=O)N[C@H]1C2C[C@@H]3C[C@@H]1C[C@@](C(=O)O)(C2)C3 [(1R,3R,4S,7S)-4-[2-(4-chlorophenoxy)-2-methylpropanamido]adamantane-1-carboxylic acid] |
| – | 4 | CC(C)(Oc1ccc(Cl)cc1)C(=O)N[C@H]1C2C[C@@H]3C[C@@H]1C[C@@](C(=O)NCC(N)=O)(C2)C3 [N-[(1R,2S,5R,7S)-5-[(carbamoylmethyl)carbamoyl]adamantan-2-yl]-2-(4-chlorophenoxy)-2-methylpropanamide] |
| – | 12 | CC(C)(Oc1ccc(Cl)cc1)C(=O)N[C@H]1C2C[C@@H]3C[C@@H]1C[C@@](C(=O)NCc1ccc(C(=O)O)cc1)(C2)C3 [4-({[(1R,3R,4S,7S)-4-[2-(4-chlorophenoxy)-2-methylpropanamido]adamantan-1-yl]formamido}methyl)benzoic acid] |
| – | 3 | CC(C)(Oc1ccc(Cl)cc1)C(=O)N[C@H]1C2C[C@@H]3C[C@@H]1C[C@@](C(N)=O)(C2)C3 [(1R,3R,4S,7S)-4-[2-(4-chlorophenoxy)-2-methylpropanamido]adamantane-1-carboxamide] |

| SMILES | IC50 [1] [nM] | IC50 [2] [nM] |
| --- | --- | --- |
| CC(C)(Oc1ccccc1Cl)C(=O)N[C@H]1C2C[C@@H]3C[C@@H]1C[C@@](C(=O)NS(=O)(=O)c1ccccc1)(C2)C3 [(1R,3R,4S,7S)-N-(benzenesulfonyl)-4-[2-(2-chlorophenoxy)-2-methylpropanamido]adamantane-1-carboxamide] | 500 | 1000 |
